Assay results published in patent publication US20250332125A1, “TREATMENT OF MODERATE AND SEVERE GASTROPARESIS” (priority 2016, published 2025).

Experiments:
Format in all cases: in vivo, human
[1] = Tardive dyskinesia reports over the clinical development program; settings: 1,311 exposed healthy volunteers and patients over the clinical development program
[2] = Phase 3 study of metoclopramide nasal spray: safety, treatment-emergent adverse events
Description: The study was a U.S. multicenter, randomized, double-blind, placebo-controlled, parallel-group study of the efficacy and safety of IN MCP compared to placebo in adult female subjects with diabetic gastroparesis. Diabetic women with clinical symptoms attributed to diabetic gastroparesis, and documentation of delayed gastric emptying who met the protocol-specified entry criteria were randomized 1:1 in a parallel-group design to IN MCP (10 mg metoclopramide) or placebo administered as a single nasal spray four times daily; 30 minutes before meals and at bedtime for a total of four weeks. Eligible patients received a dose of IN MCP or placebo 30 minutes before meals and at bedtime daily.
Diabetic women with clinical symptoms attributed to diabetic gastroparesis and documentation of delayed gastric emptying who met the protocol-specified entry criteria were randomized to Metoclopramide Nasal Spray 10 mg or placebo administered as a single intranasal spray four (4) times daily; 30 minutes before meals and at bedtime for a total of four (4) weeks.

[3] = system: adult female subjects with diabetic gastroparesis; experiment: Phase 3 multicenter, randomized, double-blind, placebo-controlled study of metoclopramide nasal spray: symptom efficacy (GSA scores); design: Estimated Mean Change from Baseline in Mean Daily GSA Total Scores (LSMean from ANCOVA) / Mean Change from Baseline in Mean Daily Nausea Score (LSMean from ANCOVA): scale not given here; settings: for Mean Change from Baseline in Mean Daily Nausea Score (LSMean from ANCOVA) / Mean Change from Baseline in Mean Daily Upper Abdominal Pain Score (LSMean from ANCOVA): ITT Population with Moderate to Severe Symptoms; for Estimated Mean Change from Baseline in Mean Daily GSA Total Scores (LSMean from ANCOVA): Baseline GSA >2.7 (BOCF)
Description: A multicenter, randomized, double-blind, placebo-controlled clinical study of intranasal metoclopramide (“IN MCP”) in female diabetic gastroparesis patients was carried out. The study explored the use of IN MCP for the relief of symptoms associated with acute and recurrent diabetic gastroparesis in adult women. […] The study was a U.S. multicenter, randomized, double-blind, placebo-controlled, parallel-group study of the efficacy and safety of IN MCP compared to placebo in adult female subjects with diabetic gastroparesis. Diabetic women with clinical symptoms attributed to diabetic gastroparesis, and documentation of delayed gastric emptying who met the protocol-specified entry criteria were randomized 1:1 in a parallel-group design to IN MCP (10 mg metoclopramide) or placebo administered as a single nasal spray four times daily; 30 minutes before meals and at bedtime for a total of four weeks. Eligible patients received a dose of IN MCP or placebo 30 minutes before meals and at bedtime daily. A total of 205 female gastroparesis patients were enrolled. Of the total, nearly half had been identified as having moderate to severe gastroparesis. […] Diabetic women with clinical symptoms attributed to diabetic gastroparesis and documentation of delayed gastric emptying who met the protocol-specified entry criteria were randomized to Metoclopramide Nasal Spray 10 mg or placebo administered as a single intranasal spray four (4) times daily; 30 minutes before meals and at bedtime for a total of four (4) weeks. Inclusion criteria included prior diagnosis of Type 1 or Type 2 diabetes, and diagnosis of diabetic gastroparesis with delayed gastric emptying. […]

[4] = 10 mg intranasal four times daily, 4 weeks, N = 102
[5] = Week 1, 10 mg intranasal four times daily, N = 52
[6] = Week 2, 10 mg intranasal four times daily, N = 52
[7] = Week 3, 10 mg intranasal four times daily, N = 52
[8] = Week 4, 10 mg intranasal four times daily, N = 52

CCN(CC)CCNC(=O)c1cc(Cl)c(N)cc1OC [IN MCP, 4-amino-5-chloro-N-[2-(diethylamino)ethyl]-2-methoxybenzamide]
Reports of tardive dyskinesia [1]: no reports of tardive dyskinesia | Treatment-Emergent Adverse Event Epistaxis, number of subjects [2, 4]: 1 (1%) | Treatment-Emergent Adverse Event Epistaxis, percent of subjects [2, 4]: 1 (1%) | Treatment-Emergent Adverse Event Fatigue, number of subjects [2, 4]: 2 (2%) | Treatment-Emergent Adverse Event Fatigue, percent of subjects [2, 4]: 2 (2%) | Treatment-Emergent Adverse Event Headache, number of subjects [2, 4]: 5 (5%) | Treatment-Emergent Adverse Event Headache, percent of subjects [2, 4]: 5 (5%) | Treatment-Emergent Adverse Event Nasal discomfort, number of subjects [2, 4]: 1 (1%) | Treatment-Emergent Adverse Event Nasal discomfort, percent of subjects [2, 4]: 1 (1%) | Central nervous system (CNS) effects that have been associated with oral and parenteral metoclopramide ([2]; delivered as a nasal spray): no central nervous system (CNS) effects observed | Drug-related adverse effects ([2]; intranasal): no reported drug-related adverse effects | Overall safety results ([2]; nasal spray 10 mg four times daily, 4 weeks): no significant adverse effects | Mean Change from Baseline in Mean Daily Nausea Score (LSMean from ANCOVA) [3, 5]: −0.859 | Mean Change from Baseline in Mean Daily Upper Abdominal Pain Score (LSMean from ANCOVA) [3, 5]: −0.641 | Mean Change from Baseline in Mean Daily Nausea Score (LSMean from ANCOVA) [3, 6]: −1.149 | Mean Change from Baseline in Mean Daily Upper Abdominal Pain Score (LSMean from ANCOVA) [3, 6]: −0.990 | Mean Change from Baseline in Mean Daily Nausea Score (LSMean from ANCOVA) [3, 7]: −1.242 | Mean Change from Baseline in Mean Daily Upper Abdominal Pain Score (LSMean from ANCOVA) [3, 7]: −1.194 | Mean Change from Baseline in Mean Daily Nausea Score (LSMean from ANCOVA) [3, 8]: −1.404 | Mean Change from Baseline in Mean Daily Upper Abdominal Pain Score (LSMean from ANCOVA) [3, 8]: −1.218 | Estimated Mean Change from Baseline in Mean Daily GSA Total Scores (LSMean from ANCOVA) ([3]; ITT, Week 1, 10 mg intranasal four times daily, N = 52): −0.588 | Estimated Mean Change from Baseline in Mean Daily GSA Total Scores (LSMean from ANCOVA) ([3]; ITT, Week 2, 10 mg intranasal four times daily, N = 52): −0.950 | Estimated Mean Change from Baseline in Mean Daily GSA Total Scores (LSMean from ANCOVA) ([3]; ITT, Week 3, 10 mg intranasal four times daily, N = 52): −1.096 | Estimated Mean Change from Baseline in Mean Daily GSA Total Scores (LSMean from ANCOVA) ([3]; ITT, Week 4, 10 mg intranasal four times daily, N = 52): −1.220 | Estimated Mean Change from Baseline in Mean Daily GSA Total Scores (LSMean from ANCOVA) ([3]; Per Protocol, Week 1, 10 mg intranasal four times daily, N = 38): −0.623 | Estimated Mean Change from Baseline in Mean Daily GSA Total Scores (LSMean from ANCOVA) ([3]; Per Protocol, Week 2, 10 mg intranasal four times daily, N = 38): −1.040 | Estimated Mean Change from Baseline in Mean Daily GSA Total Scores (LSMean from ANCOVA) ([3]; Per Protocol, Week 3, 10 mg intranasal four times daily, N = 38): −1.286 | Estimated Mean Change from Baseline in Mean Daily GSA Total Scores (LSMean from ANCOVA) ([3]; Per Protocol, Week 4, 10 mg intranasal four times daily, N = 38): −1.373 | Efficacy versus placebo, change from baseline ([3]; all enrolled patients across all severities of disease (205 female patients), 10 mg intranasal q.i.d.): no statistically significant change from baseline in efficacy versus placebo | Efficacy compared to placebo ([3]; mild gastroparesis, intranasal, same treatment regimen): did not demonstrate statistically significant efficacy | Improvements in nausea and abdominal pain ([3]; patient segment with moderate to severe symptoms of gastroparesis, versus placebo): clinically and statistically significant improvements | Efficacy versus placebo (post-hoc analysis) ([3]; patients who entered the study with moderate to severe gastroparesis, 10 mg intranasal q.i.d.): statistically significant efficacy
